Drawing on patent publication US8648076B2, “Cysteine protease inhibitors and their therapeutic applications” (Hybrigenics SA, priority 2005, dated 2014), this text covers GI50 and IC50 for 20 molecules.

Read-outs that look alike come from different tables or passages of the source.

The test system of test [1] is PC-3 prostate cancer cells. As to the kind of experiment: PC3 cell viability and proliferation assay (MTS). The class given is cell-based. The note with it: Homo sapiens, PC-3, 72 h, read-out: PC3 D3 GI50.
The target in a further test is T1, USP5 (Homo sapiens, UniProt P45974).
T1 sequence (P45974 1-858): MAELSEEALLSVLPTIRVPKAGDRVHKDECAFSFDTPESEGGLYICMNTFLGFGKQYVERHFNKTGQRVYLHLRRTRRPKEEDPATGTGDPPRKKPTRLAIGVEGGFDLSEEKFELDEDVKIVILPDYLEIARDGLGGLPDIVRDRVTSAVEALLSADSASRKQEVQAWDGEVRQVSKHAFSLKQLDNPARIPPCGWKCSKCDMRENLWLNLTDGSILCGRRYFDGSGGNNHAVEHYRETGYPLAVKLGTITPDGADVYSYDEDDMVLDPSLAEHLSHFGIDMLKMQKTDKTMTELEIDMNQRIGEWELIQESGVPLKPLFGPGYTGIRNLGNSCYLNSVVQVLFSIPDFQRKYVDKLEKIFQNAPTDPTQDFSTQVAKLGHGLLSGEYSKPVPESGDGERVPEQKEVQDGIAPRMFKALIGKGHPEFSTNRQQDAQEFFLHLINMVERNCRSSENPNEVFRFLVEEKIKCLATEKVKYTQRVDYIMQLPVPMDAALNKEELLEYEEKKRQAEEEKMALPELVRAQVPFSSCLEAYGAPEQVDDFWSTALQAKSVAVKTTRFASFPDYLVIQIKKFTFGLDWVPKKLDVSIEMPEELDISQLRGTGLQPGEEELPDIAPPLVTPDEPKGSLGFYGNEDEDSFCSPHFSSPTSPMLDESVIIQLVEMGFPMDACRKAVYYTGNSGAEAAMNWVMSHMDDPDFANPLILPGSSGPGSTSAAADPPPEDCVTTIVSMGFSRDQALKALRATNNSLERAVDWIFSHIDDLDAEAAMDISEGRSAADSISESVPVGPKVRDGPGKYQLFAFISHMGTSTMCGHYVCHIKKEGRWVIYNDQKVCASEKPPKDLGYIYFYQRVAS
As to the kind of experiment: USP5 activity assay. The settings on record: 400 nM Ub-AMC, 300 pM enzyme, 30 min pre-incubation at 25° C., 60 min at 37° C.; sigmoidal fit; AF: Autofluorescent; read-out: USP 5 (inhibition of cysteine protease activity). The class given is biochemical. The method, then:
Bovine Serum Albumin 0.05 mg·ml^−1 pH7.6). Compounds stocks (100 mM) were stored at −20° C. in DMSO. […] Reactions were performed as duplicates in Black LJL 96 well plates (HE microplates; Molecular Devices; 20 μl final reaction volume). The substrate concentration for USP5 was 400 nM Ub-AMC (Boston Biochem). The concentrations of the enzyme (USP5) in specificity assays was 300 pM. The concentrations were determined in order to perform specificity assays under initial velocities at fixed substrate concentration. Compounds were pre-incubated with enzymes for 30 minutes at 25° C. Reactions were initiated by addition of substrate to the plates containing the enzymes (+/− compounds) diluted in assay buffer. Reactions were incubated for 60 minutes at 37° C. Reactions were stopped by adding acetic acid (100 mM final). Readings were performed on a Pherastar Fluorescent Reader (BMG). λ Emission 380 nm; λ Excitation=460 nm. Data (mean values +/− standard deviation) were analyzed as % of control (no compound) and plotted as percentage versus the Log of the compound concentration using GraphPad (Prism). Data were fitted to a sigmoidal model (variable slope).

For test [2], the system named is HCT116 colon cancer cells. Description: HCT116 cell viability and proliferation assay (MTS). The format is cell-based. The settings on record: Homo sapiens, read-out: HCT116 D3 GI50.
The next test deals with Cathepsin B (Homo sapiens, UniProt P07858). As to the kind of experiment: Cathepsin B activity assay. The class given is biochemical. The note with it: 36 μM z-RR-AMC, 3.6 nM enzyme, 30 min pre-incubation at 25° C., 60 min at 37° C.; sigmoidal fit; AF: Autofluorescent; read-out: cathepB (inhibition of cysteine protease activity). Here is the method:
Cathepsin B was diluted in Cathepsin B buffer (20 mM Tris HCl pH 6.8; 1 mM EDTA; 1 mM DTT). Compounds stocks (100 mM) were stored at −20° C. in DMSO. […] Reactions were performed as duplicates in Black LJL 96 well plates (HE microplates; Molecular Devices; 20 μl final reaction volume). The substrate concentration for cathepsin B specificity assay was 36 μM (z-RR-AMC; Calbiochem). The concentration of the enzyme (Cathepsin B) in specificity assays was 3.6 nM. The concentrations were determined in order to perform specificity assays under initial velocities at fixed substrate concentration. Compounds were pre-incubated with enzymes for 30 minutes at 25° C. Reactions were initiated by addition of substrate to the plates containing the enzymes (+/− compounds) diluted in assay buffer. Reactions were incubated for 60 minutes at 37° C. Reactions were stopped by adding acetic acid (100 mM final). Readings were performed on a Pherastar Fluorescent Reader (BMG). δ Emission 380 nm; 6 Excitation=460 nm. Data (mean values+/− standard deviation) were analyzed as % of control (no compound) and plotted as percentage versus the Log of the compound concentration using GraphPad (Prism). Data were fitted to a sigmoidal model (variable slope).

[3] abbreviates: PC3 cells, 72 hours incubation, MTS, mean of 3 independent experiments.
The mark [4] stands for this setting: HCT-116, HCT116 cells, 72 hours incubation, MTS, mean of 3 independent experiments.

For `C=CCON=C1c2ccccc2-c2nc(C#N)c(C#N)nc21` (mixture of isomers) [Example 13b, 9-(Allyloxyimino)-9H-indeno[1,2-b]pyrazine-2,3-dicarbonitrile], the GI50 (as a rule, the concentration giving 50% growth inhibition) in test [1] amounted to 540 nM; in test [2] (HCT-116, 72 h) it was 580 nM. Also, the IC50 on USP5 and on Cathepsin B was above 100000 nM each time.

In the case of `Cc1cccc2c1C(=O)c1nc(C#N)c(C#N)nc1-2` [Example 17c, 8-Methyl-9-oxo-9H-indeno[1,2-b]pyrazine-2,3-dicarbonitrile], the GI50 is 930 nM in test [1] (setting [3]) and 390 nM in test [2] (setting [4]). The IC50 at USP5 is 60000 nM; at Cathepsin B it was above 100000 nM.

As to `N#CNc1nc2c(nc1C#N)C(=O)c1ccccc1-2` [Example 21, 2-cyano-9-oxo-9H-indeno[1,2-b]pyrazin-3-yl-cyanamide], the GI50 in test [1] (setting [3]) and in test [2] (setting [4]) was above 10000 nM each time. The IC50 on USP5 and on Cathepsin B was above 100000 nM throughout.

With `N#Cc1nc2c(nc1CC(N)=O)-c1ccccc1C2=O` [Example 26, 2-(2-cyano-9-oxo-9H-indeno[1,2-b]pyrazin-3-yl)-acetamide], the GI50 was above 10000 nM in test [1] and above 10000 nM in test [2] (HCT-116, 72 h). For the same molecule, the results for the IC50 at USP5 and on Cathepsin B were 60000 nM and above 100000 nM, respectively.

In the case of `COc1cc2c(cc1OC)-c1nc(C#N)c(C#N)nc1C2=O` [Example 17b, 6,7-Dimethoxy-9-oxo-9H-indeno[1,2-b]pyrazine-2,3-dicarbonitrile], the values for the GI50 in test [1] (setting [3]) and in test [2] (setting [4]) were 920 nM and 530 nM, respectively. Besides, the IC50 at USP5 and at Cathepsin B was above 100000 nM each time.

Take `N#Cc1nc2c(nc1C#N)-c1ccccc1C2=O` [Example 1, 9-oxo-9H-indeno[1,2-b]pyrazine-2,3-dicarbonitrile]: the results for the GI50 in test [1] (setting [3]) and in test [2] (setting [4]) were 610 nM and 150 nM, respectively. The IC50 at USP5 worked out at 1300 nM; on Cathepsin B it was 12000 nM.

Take `CON=C1c2ccccc2-c2nc(C(N)=O)c(C#N)nc21` [Example 34d, 2-Cyano-9-methoxyimino-9H-indeno[1,2-b]pyrazine-3-carboxylic acid amide]: the GI50 in test [1] was found to be 1200 nM; in test [2] (HCT-116, 72 h), 916 nM. The IC50 came to 113 nM on USP5 and 1110 nM on Cathepsin B.

As for `N#Cc1nc2c(nc1C#N)-c1ccccc1C2=NOCCOc1ccccc1` [Example 27a, 9-(2-Phenoxy-ethoxyimino)-9H-indeno[1,2-b]pyrazine-2,3-dicarbonitrile], the 50% growth inhibitory concentration (GI50) worked out at 1000 nM in test [1] and 549 nM in test [2] (HCT-116, 72 h). In addition, the IC50 at USP5 and on Cathepsin B was above 100000 nM in each case.

`COCCOc1nc2c(nc1C#N)C(=O)c1ccccc1-2` [Example 5, 3-(2-methoxy-ethoxy)-9-oxo-9H-indeno[1,2-b]pyrazine-2-carbonitrile]: the 50% growth inhibitory concentration (GI50) in test [1] (setting [3]) and in test [2] (setting [4]) was above 10000 nM in each case. Also, the IC50 on USP5 and on Cathepsin B was above 100000 nM each time.

For `COc1ccc2c(c1OC)C(=O)c1nc(C#N)c(C#N)nc1-2` [Example 17d, 7,8-Dimethoxy-9-oxo-9H-indeno[1,2-b]pyrazine-2,3-dicarbonitrile], the GI50 in test [1] (setting [3]) was determined as 910 nM; in test [2] (setting [4]) it was 680 nM. Besides, the figures for the IC50 on USP5 and on Cathepsin B were 2500 nM and 87000 nM, respectively.

For the molecule `Cc1ccc2c(c1)-c1nc(C#N)c(C#N)nc1C2=O` [Example 17e, 6-Methyl-9-oxo-9H-indeno[1,2-b]pyrazine-2,3-dicarbonitrile], the GI50 was determined as 1320 nM in test [1] (setting [3]) and 300 nM in test [2] (setting [4]). Besides, the IC50 at USP5 came to 7800 nM; on Cathepsin B it was 20000 nM.

As to `N#Cc1nc2c(nc1C#N)-c1ccc(Cl)cc1C2=O` [Example 17g, 7-Chloro-9-oxo-9H-indeno[1,2-b]pyrazine-2,3-dicarbonitrile], the GI50 came to 1110 nM in test [1] (setting [3]) and 320 nM in test [2] (setting [4]). In addition, the IC50 on USP5 was found to be 160 nM; on Cathepsin B it was 1500 nM.

Regarding `CCO/C(O)=C(\C#N)c1nc2c(nc1C#N)C(=O)c1ccccc1-2` [Example 22, 3-(1-cyano-2-ethoxy-2-hydroxy-vinyl)-9-oxo-9H-indeno[1,2-b]pyrazine-2-carbonitrile], the GI50 in test [1] (setting [3]) and in test [2] (setting [4]) was above 10000 nM each time. Besides, the IC50 at USP5 and at Cathepsin B was above 100000 nM throughout.

As for `COCCON=C1c2ccccc2-c2nc(C(N)=O)c(C#N)nc21` [Example 34c, 2-Cyano-9-(2-methoxy-ethoxyimino)-9H-indeno[1,2-b]pyrazine-3-carboxylic acid amide], the GI50 in test [1] was 362 nM; in test [2] (HCT-116, 72 h), 378 nM. The IC50 on USP5 is 606 nM; at Cathepsin B, above 100000 nM.

Take `CCSc1nc2c(nc1C#N)C(=O)c1ccccc1-2` [Example 23, 3-ethylsulfanyl-9-oxo-9H-indeno[1,2-b]pyrazine-2-carbonitrile]: the GI50 in test [1] (setting [3]) and in test [2] (setting [4]) was above 10000 nM in each case. Further, the IC50 on USP5 and on Cathepsin B was above 100000 nM in each case.

Regarding `C=CCON=C1c2ccccc2-c2nc(C(N)=O)c(C#N)nc21` [Example 34a, 9-Allyloxyimino-2-cyano-9H-indeno[1,2-b]pyrazine-3-carboxylic acid amide], the 50% growth inhibitory concentration (GI50) in test [1] was 511 nM; in test [2] (HCT-116, 72 h), 496 nM. Besides, the IC50 at USP5 turned out to be 143 nM; on Cathepsin B, 3500 nM.

Turning to `N#Cc1nc2c(nc1N1CCC(F)(F)CC1)-c1ccccc1C2=O` [Example 8, 3-(4,4-difluoro-piperidin-1-yl)-9-oxo-9H-indeno[1,2-b]-pyrazine-2-carbonitrile], the GI50 in test [1] (setting [3]) and in test [2] (setting [4]) was above 10000 nM throughout. The IC50 at USP5 and on Cathepsin B was above 100000 nM each time.

`N#Cc1nc2c(nc1C#N)-c1ccccc1C2=NOCc1ccccc1` (mixture of isomers) [Example 13C, 9-Benzyloxyimino-9H-indeno[1,2-b]pyrazine-2,3-dicarbonitrile]: the GI50 in test [1] (setting [3]) amounted to 700 nM; in test [2] (setting [4]), 750 nM. Moreover, the IC50 on USP5 and at Cathepsin B was above 100000 nM in each case.

With `N#Cc1nc2c(nc1O)-c1ccccc1C2=O` [Example 6, 3-hydroxy-9-oxo-9H-indeno[1,2-b]pyrazine-2-carbonitrile], the GI50 in test [1] (setting [3]) and in test [2] (setting [4]) was above 10000 nM throughout. In addition, the IC50 at USP5 was 9100 nM; on Cathepsin B, above 100000 nM.

On to `N#Cc1nc2c(nc1C#N)-c1ccc(O)cc1C2=O` [Example 17j, 7-Hydroxy-9-oxo-9H-indeno[1,2-b]pyrazine-2,3-dicarbonitrile], for which the GI50 in test [1] (setting [3]) and in test [2] (setting [4]) was above 10000 nM each time. In addition, the IC50 at USP5 was above 100000 nM; at Cathepsin B, 40000 nM.
